Data published in US9061966B2, “Cyclopropylamine inhibitors of oxidases” (ORYZON GENOMICS S.A., priority 2010, dated 2015).
Where a name gives a salt, the structure may show the parent alone.

What was measured:
Type in all cases: biochemical
[1] = molecular target: T1, Human recombinant monoamine oxidase MAO-A (Homo sapiens, UniProt P21397); assay: Monoamine oxidase assay, kynuramine fluorescence, MAO-A; settings: Ki (IC50) determined at Vmax/2; range class
T1 construct: purchased Sigma Aldrich
T1 sequence (P21397 1-527): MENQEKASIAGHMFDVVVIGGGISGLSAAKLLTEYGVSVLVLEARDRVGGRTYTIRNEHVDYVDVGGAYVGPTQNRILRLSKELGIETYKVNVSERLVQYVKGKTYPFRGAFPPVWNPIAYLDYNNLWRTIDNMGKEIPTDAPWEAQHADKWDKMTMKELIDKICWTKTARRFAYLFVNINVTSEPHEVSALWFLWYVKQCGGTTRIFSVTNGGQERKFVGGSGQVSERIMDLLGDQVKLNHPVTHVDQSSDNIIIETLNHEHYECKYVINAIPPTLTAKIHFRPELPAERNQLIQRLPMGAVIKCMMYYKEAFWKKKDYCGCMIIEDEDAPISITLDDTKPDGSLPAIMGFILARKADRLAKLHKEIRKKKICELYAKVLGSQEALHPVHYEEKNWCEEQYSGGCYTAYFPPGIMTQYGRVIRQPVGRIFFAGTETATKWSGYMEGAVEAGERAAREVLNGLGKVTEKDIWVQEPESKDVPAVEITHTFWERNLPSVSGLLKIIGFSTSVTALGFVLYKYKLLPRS
Source text: (§1) Human recombinant monoamine oxidase proteins MAO-A and MAO-B were purchased from Sigma Aldrich. MAOs catalyze the oxidative deamination of primary, secondary and tertiary amines. In order to monitor MAO enzymatic activities and/or their inhibition rate by inhibitor(s) of interest, a fluorescence-based (inhibitor)-screening assay was set up. 3-(2-Aminophenyl)-3-oxopropanamine (kynuramine dihydrobromide, Sigma Aldrich), a non fluorescent compound was chosen as a substrate. Kynuramine is a non-specific substrate for both MAO-A and MAO-B activities. While undergoing oxidative deamination by MAO activities, kynuramine is converted into 4-hydroxyquinoline (4-HQ), a resulting fluorescent product.
(§2) The monoamine oxidase activity was estimated by measuring the conversion of kynuramine into 4-hydroxyquinoline. Assays were conducted in 96-well black plates with clear bottom (Corning) in a final volume of 100 μL. The assay buffer was 100 mM HEPES, pH 7.5. Each experiment was performed in triplicate within the same experiment.
(§3) Briefly, a fixed amount of MAO (0.25 μg for MAO-A and 0.5 μg for MAO-B) was incubated on ice for 15 minutes in the reaction buffer, in the absence and/or in the presence of various concentrations of inhibitor (e.g., from 0 to 50 μM, depending on the inhibitor strength). Tranylcypromine (Biomol International) was used as a control for inhibition.
(§4) After leaving the enzyme(s) interacting with the inhibitor, 60 to 90 μM of kynuramine was added to each reaction for MAO-B and MAO-A assay respectively, and the reaction was left for 1 hour at 37° C. in the dark. The oxidative deamination of the substrate was stopped by adding 50 μL (v/v) of NaOH 2N. The conversion of kynuramine to 4-hydroxyquinoline, was monitored by fluorescence (excitation at 320 nm, emission at 360 nm) using a microplate reader (Infinite 200, Tecan). Arbitrary units were used to measure levels of fluorescence produced in the absence and/or in the presence of inhibitor.
(§5) The maximum of oxidative deamination activity was obtained by measuring the amount of 4-hydroxyquinoline formed from kynuramine deamination in the absence of inhibitor and corrected for background fluorescence in the absence of MAO enzymes. The Ki (IC50) of each inhibitor was determined at Vmax/2.

[2] = molecular target: T2, Human recombinant monoamine oxidase MAO-B (Homo sapiens, UniProt P27338); assay: Monoamine oxidase assay, kynuramine fluorescence, MAO-B; settings: Ki (IC50) determined at Vmax/2; range class
T2 construct: purchased Sigma Aldrich
T2 sequence (P27338 1-520): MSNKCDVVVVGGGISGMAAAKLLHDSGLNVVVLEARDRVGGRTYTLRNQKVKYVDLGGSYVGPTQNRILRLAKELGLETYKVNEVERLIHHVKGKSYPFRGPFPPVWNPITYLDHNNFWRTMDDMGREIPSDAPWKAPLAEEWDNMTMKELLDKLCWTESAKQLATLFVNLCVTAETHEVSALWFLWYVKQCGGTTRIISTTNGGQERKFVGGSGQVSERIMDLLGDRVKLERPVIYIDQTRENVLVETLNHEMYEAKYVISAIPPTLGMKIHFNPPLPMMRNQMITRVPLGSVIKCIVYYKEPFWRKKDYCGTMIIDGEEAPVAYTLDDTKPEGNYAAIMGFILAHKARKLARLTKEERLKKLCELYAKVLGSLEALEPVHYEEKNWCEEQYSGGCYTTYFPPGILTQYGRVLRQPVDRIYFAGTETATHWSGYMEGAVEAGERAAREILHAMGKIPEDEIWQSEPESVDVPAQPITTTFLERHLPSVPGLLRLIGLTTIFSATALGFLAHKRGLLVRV
Source text: as §1, §2, §3, §4, §5

[3] = molecular target: T3, Human recombinant LSD1 protein (Homo sapiens, UniProt O60341); assay: Inhibition of LSD1 (Amplex Red peroxide/peroxidase-coupled demethylase assay, di-methylated H3-K4 peptide substrate); settings: Ki (IC50) estimated at half of the maximum activity; range class
T3 construct: purchased BPS Bioscience Inc
Source text: The compounds of the invention can be tested for their ability to inhibit LSD1. The ability of the compounds of the invention to inhibit LSD1 can be tested as follows. Human recombinant LSD1 protein was purchased from BPS Bioscience Inc. In order to monitor LSD1 enzymatic activity and/or its inhibition rate by our inhibitor(s) of interest, di-methylated H3-K4 peptide (Millipore) was chosen as a substrate. The demethylase activity was estimated, under aerobic conditions, by measuring the release of H2O2 produced during the catalytic process, using the Amplex® Red peroxide/peroxidase-coupled assay kit (Invitrogen).
Briefly, a fixed amount of LSD1 was incubated on ice for 15 minutes, in the absence and/or in the presence of various concentrations of inhibitor (e.g., from 0 to 75 μM, depending on the inhibitor strength). Tranylcypromine (Biomol International) was used as a control for inhibition. Within the experiment, each concentration of inhibitor was tested in triplicate. After leaving the enzyme interacting with the inhibitor, 12.5 μM of di-methylated H3-K4 peptide was added to each reaction and the experiment was left for 1 hour at 37° C. in the dark. The enzymatic reactions were set up in a 50 mM sodium phosphate, pH 7.4 buffer. At the end of the incubation, Amplex® Red reagent and horseradish peroxidase (HPR) solution were added to the reaction according to the recommendations provided by the supplier (Invitrogen), and left to incubate for 30 extra minutes at room temperature in the dark. A 1 μM H2O2 solution was used as a control of the kit efficiency. The conversion of the Amplex® Red reagent to resorufin due to the presence of H2O2 in the assay, was monitored by fluorescence (excitation at 540 nm, emission at 590 nm) using a microplate reader (Infinite 200, Tecan). Arbitrary units were used to measure level of H2O2 produced in the absence and/or in the presence of inhibitor.
The maximum demethylase activity of LSD1 was obtained in the absence of inhibitor and corrected for background fluorescence in the absence of LSD1. The Ki (IC50) of each inhibitor was estimated at half of the maximum activity.

Ki [1] [nM]	Ki [2] [nM]	Ki [3] [nM]	SMILES
1000 to 40000	1000 to 40000	100 to 1000	N[C@H]1C[C@@H]1c1ccc(NCc2ccc(C(F)(F)F)cc2)nc1 (racemic) [Example 15, 5-((trans)-2-aminocyclopropyl)-N-(4-(trifluoromethyl)benzyl)pyridin-2-amine hydrochloride]
1000 to 40000	100 to 1000	100 to 1000	N[C@H]1C[C@@H]1c1ccc(Nc2ccc(C(F)(F)F)cc2)nc1 (racemic) [Example 3, 5-((trans)-2-aminocyclopropyl)-N-(4-(trifluoromethyl)phenyl)pyridin-2-amine hydrochloride]
1000 to 40000	100 to 1000	100 to 1000	Cc1cccc(Nc2ccc([C@H]3C[C@@H]3N)cn2)c1 (racemic) [Example 7, 5-((trans)-2-aminocyclopropyl)-N-m-tolylpyridin-2-amine hydrochloride]
1000 to 40000	1000 to 40000	100 to 1000	N#Cc1cccc(CNc2ccc([C@H]3C[C@@H]3N)cn2)c1 (racemic) [Example 18, 3-((5-((trans)-2-aminocyclopropyl)pyridin-2-ylamino)methyl)benzonitrile hydrochloride]
1000 to 40000	1000 to 40000	100 to 1000	Cc1ccc(CNc2ccc([C@H]3C[C@@H]3N)cn2)cc1 (racemic) [Example 17, 5-((trans)-2-aminocyclopropyl)-N-(4-methylbenzyl)pyridin-2-amine hydrochloride]
1000 to 40000	1000 to 40000	100 to 1000	NC(=O)c1cccc(Nc2ccc([C@H]3C[C@@H]3N)cn2)c1 (racemic) [Example 10, 3-(5-((trans)-2-aminocyclopropyl)pyridin-2-ylamino)benzamide hydrochloride]
1000 to 40000	1000 to 40000	100 to 1000	Cc1cccc(CNc2ccc([C@H]3C[C@@H]3N)cn2)c1 (racemic) [Example 16, 5-((trans)-2-aminocyclopropyl)-N-(3-methylbenzyl)pyridin-2-amine hydrochloride]
1000 to 40000	1 to 100	100 to 1000	N[C@H]1C[C@@H]1c1ccc(Nc2cccc(Cl)c2)nc1 (racemic) [Example 1, 5-((trans)-2-aminocyclopropyl)-N-(3-chlorophenyl)pyridin-2-amine hydrochloride]
1000 to 40000	1000 to 40000	100 to 1000	Cc1ccc(Nc2ccc([C@H]3C[C@@H]3N)cn2)cc1 (racemic) [Example 6, 5-((trans)-2-aminocyclopropyl)-N-p-tolylpyridin-2-amine hydrochloride]
1000 to 40000	1 to 100	100 to 1000	N[C@H]1C[C@@H]1c1ccc(Nc2ccc(Cl)cc2)nc1 (racemic) [Example 2, 5-((trans)-2-aminocyclopropyl)-N-(4-chlorophenyl)pyridin-2-amine hydrochloride]
1000 to 40000	100 to 1000	100 to 1000	N#Cc1cccc(Nc2ccc([C@H]3C[C@@H]3N)cn2)c1 (racemic) [Example 9, 3-(5-((trans)-2-aminocyclopropyl)pyridin-2-ylamino)benzonitrile hydrochloride]
1000 to 40000	100 to 1000	100 to 1000	COc1ccc(Nc2ccc([C@H]3C[C@@H]3N)cn2)cc1 (racemic) [Example 5, 5-((trans)-2-aminocyclopropyl)-N-(4-methoxyphenyl)pyridin-2-amine hydrochloride]
1000 to 40000	1000 to 40000	100 to 1000	COc1cccc(Nc2ccc([C@H]3C[C@@H]3N)cn2)c1 (racemic) [Example 4, 5-((trans)-2-aminocyclopropyl)-N-(3-methoxyphenyl)pyridin-2-amine hydrochloride]
1000 to 40000	1000 to 40000	100 to 1000	N[C@H]1C[C@@H]1c1ccc(NCc2cccc(Cl)c2)nc1 (racemic) [Example 12, 5-((trans)-2-aminocyclopropyl)-N-(3-chlorobenzyl)pyridin-2-amine hydrochloride]
